One test deals with H838. As to the kind of experiment: CCK-8 cell viability assay. Format: cell-based, human. Particulars: 48 h treatment, mean ± S.E.M., wild-type Ras. As for the experimental part: (§1) Human hepatoma (HepG2, Hep3B), human lung adenocarcinoma (A549, H838), and human myelogenous leukemia (K562) cell lines were obtained from American Type Culture Collection (Rockville, Md., USA). Human prostate cancer cell lines (LNCaP and DU145), human breast carcinoma (MCF-7), human bladder carcinoma (TSGH 8301) and human pancreas adenocarcinoma (BxPC-3) were obtained from BCRC (Bioresource Collection and Research Center, Hsinchu, Taiwan). HepG2, DU145 and MCF-7 cell lines were cultured in Minimum Essential Medium Alpha (Invitrogen/Gibco BRL, Grand Island, N.Y., USA). A549 cells were cultured in Dulbecco's modified Eagle's medium (Invitrogen/Gibco BRL). H838, TSGH 8301, BxPC-3 LNCaP and K562 cell lines were cultured in RPMI-1640 medium (Invitrogen/Gibco BRL). All cells were cultured at 37° C. in 5% CO2 in culture media supplemented with 10% fetal bovine serum (FBS) (Invitrogen/Gibco BRL) and 100 U/ml streptomycin and penicillin (Invitrogen/Gibco BRL). For treatment, cells were seeded in six-well plates at 6.25×10^5 cells/well. On the following day, the media was changed to serum-free media, and cells were serum-starved for 24 h. Compound 1 was dissolved in DMSO and diluted to the required concentration in serum-free medium. Cultures were then treated with diluted Compound 1 as indicated. After treatment, cells were washed with cold phosphate-buffered saline (PBS) and lysed using RIPA buffer containing phosphatase and protease inhibitors.
(§2) Cell Counting Kit-8 (CCK-8) allows sensitive colorimetric assays for the determination of cell viability in cell proliferation and cytotoxicity assays. The detection sensitivity of CCK-8 is higher than the other tetrazolium salts such as MTT, XTT, MTS or WST-1.
(§3) Cell viability was measured using Cell Counting Kit-8 (CCK-8, Enzo Life Sciences, Farmingdale, N.Y.). In this assay, WST-8 is reduced by dehydrogenases in cells to produce a yellow-colored product (formazan), which is soluble in culture medium. The amount of formazan generated is directly proportional to the number of living cells. After treatment, CCK-8 solution was added to each well and incubated for 4 h. The concentration of formazan was measured with a spectrophotometer at an absorbance wavelength of 450 nm. Cell viability was expressed as a percentage of the corresponding control.
(§4) To determine whether the cytotoxic effects of Compound 1 correlate with the presence of Ras mutations, cell lines derived from human lung cancer (A549 and H838), liver cancer (HepG2 and Hep3B), and leukemia (K562 and THP-1) with wild-type Ras (H838, Hep3B, and K562) or mutant Ras (A549, HepG2, and THP-1) were used. Cell viability was measured after 48 h of Compound 1 treatment.

A further test concerns THP-1. As to the kind of experiment: CCK-8 cell viability assay. Type of test: cell-based. Particulars: Homo sapiens, 48 h treatment, mean ± S.E.M., mutant Ras. The method, then:
as §2, §3, §4

Another test has as its system Hep3B. As to the kind of experiment: CCK-8 cell viability assay. Format: cell-based. Particulars: Homo sapiens, 48 h treatment, mean ± S.E.M., wild-type Ras. The method, then:
as §1, §2, §3, §4

The subject of the next test is A549. As to the kind of experiment: CCK-8 cell viability assay. Format: cell-based. Particulars: Homo sapiens, 48 h treatment, mean ± S.E.M., mutant Ras. The method, then:
as §1, §2, §3, §4

The next test concerns HepG2. As to the kind of experiment: CCK-8 cell viability assay. Format: cell-based. Particulars: Homo sapiens, 48 h treatment, mean ± S.E.M., mutant Ras. The method, then: as §1, §2, §3, §4
The subject of the next test is K562. As to the kind of experiment: CCK-8 cell viability assay. Format: cell-based. Particulars: Homo sapiens, 48 h treatment, mean ± S.E.M., wild-type Ras. The method, then: as §1, §2, §3, §4
A further test concerns Ras processing. As to the kind of experiment: Immunoblot of unprocessed and processed Ras in cancer cell lines. Particulars: H838 cells, competition assay, 24 h. Type of test: cell-based, human. As for the experimental part:
FIG. 2A-C show illustrative effective results of the exemplary Compound 1 inhibiting Ras processing in cancer cell lines. (2A) A549 and H838 cells were treated with different concentrations of Compound 1 and grown under serum (10% FBS) or serum-free (no FBS) conditions for 24 h. (2B) H838, (2C) HepG2 and K562 cells were treated with different concentrations of Compound 1 and grown under serum-free (no FBS) conditions for 24 h. Whole cell lysates were then immunoblotted with a Ras antibody. A duplicate membrane was probed with a GAPDH antibody. The relative expression level of unprocessed to processed Ras was quantified by densitometry. The experiments were conducted three times. […]
FIG. 3A-C show illustrative effective results of Compound 1 inhibiting the prenylation activity of farnesyltransferase in vitro and competes with FPP within cells. […] The relative expression level of unprocessed to processed Ras was quantified by densitometry. […]
Sixty micrograms of total protein lysates measured using a Bradford assay (Sigma-Aldrich, St. Louis, Mo., USA) were resolved on 12.5% SDS-polyacrylamide gels. […] Secondary antibodies were conjugated to horseradish peroxidase, which was detected using a 3,3′-diaminobenzidine substrate kit (Vector Laboratories, Burlingame, Calif.). The immunoreactive bands were quantified by densitometry using Image-Pro Plus software (Media Cybernetics, Silver Spring, Md.). […]

SMILES strings stand for the structures.

As for `COC1=C(OC)C(OC(C)=O)C(C/C=C(\C)CC/C=C(\C)CC2CC(C)C(=O)O2)C(C)C1=O` (centres unmarked) [Compound 28], the IC50 with H838 (Homo sapiens, NCI-H838, 48 h) was over 100 µM.
For `COC1=C(OC)C(O)C(C/C=C(\C)CC/C=C(\C)CCC=C(C)C)C(C)C1=O` (centres unmarked) [Compound 1, 4-hydroxy-2,3-dimethoxy-6-methyl-5-(3,7,11-trimethyldodeca-2,6,10-trienyl)cyclohex-2-enone], the concentration for half-maximal inhibition (IC50) amounted to 2.22 µM in the test on THP-1; 2.96 ± 0.05 µM in the test with H838; 3.32 µM with H838 (Homo sapiens, NCI-H838, 48 h); 3.74 µM in the test with Hep3B; 3.24 µM with A549; 6.42 µM in the test with HepG2. This molecule also showed an IC50 with K562 of 5.12 µM.
On to `CC(C)=CCC/C(C)=C/CC/C(C)=C/COP(=O)(O)OP(=O)(O)O` [FPP, farnesyl pyrophosphate], for which the “concentration of FPP that neutralized the effect of Compound 1 on Ras processing” value in the test with Ras processing is at least 10 µM.
For `COC1=C(OC)C(O)C(C/C=C(\C)CCC(=O)O)C(C)C1=O` (centres unmarked) [Compound 27], the IC50 in the test with H838 (Homo sapiens, NCI-H838, 48 h) was over 100 µM.
Regarding `COC1=C(OCc2ccccc2)C(O)C(C/C=C(\C)CC/C=C(\C)CCC=C(C)C)C(C)C1=O` (centres unmarked) [Compound 31], the IC50 with H838 (Homo sapiens, NCI-H838, 48 h) worked out at 3.41 ± 1.43 µM; with Hep3B, 7.46 ± 7.06 µM; with A549, 6.68 ± 0.75 µM; in the test with HepG2, 8.98 ± 0.97 µM.
In the test on H838 (Homo sapiens, NCI-H838, 48 h), `COC1=CC(O)C(C/C=C(\C)CC/C=C(\C)CCC=C(C)C)C(C)C1=O` (centres unmarked) [Compound 26, 4-hydroxy-2-methoxy-6-methyl-5-((2E,6E)-3,7,11-trimethyldodeca-2,6,10-trienyl)cyclohex-2-enone] showed a concentration for half-maximal inhibition (IC50) of 11.3 ± 4.17 µM.
Take `COC1=C(OCc2ccccc2)C(=O)C(C)C(C/C=C(\C)CC/C=C(\C)CCC=C(C)C)C1O` (centres unmarked) [Compound 30]: the concentration for half-maximal inhibition (IC50) with H838 (Homo sapiens, NCI-H838, 48 h) is 25.6 ± 6.54 µM; with Hep3B, 9.06 ± 3.03 µM; in the test on A549, 22.6 ± 2.24 µM; in the test with HepG2 it was 27 ± 6.06 µM.
In the test with H838 (Homo sapiens, NCI-H838, 48 h), `COC1=C(OC)C(OC(C)=O)C(C/C=C(\C)CC/C=C(\C)CCC=C(C)C)C(C)C1=O` (centres unmarked) [Compound 29] returned an IC50 of over 100 µM.

The values are drawn from patent US20150018296A1, “THERAPEUTIC METHODS AND COMPOSITIONS UTILIZING CYCLOHEXENONE COMPOUNDS” (Golden Biotechnology Corporation, priority 2013, published 2015).
